The results in this text go back to patent US6923992B2, “Active compounds of Bao-Ji-Wan for anti-diarrhea and relieving gastrointestinal symptoms” (The Chinese University of Hong Kong, priority 2001, dated 2005).

Experiment [1] has as its system Cl−-secreting human colonic cell line, T84. As to the kind of experiment: Inhibition of cAMP-activated Cl− secretion across T84 cell monolayers. It counts as cell-based. As to conditions: forskolin (10 μM), read-out: IC50, inhibition of forskolin-induced Cl− secretion.
Experiment [2] concerns PGE2-induced fluid accumulation. In words: PGE2-induced enteropooling assay (fluid accumulation) in rats. As to conditions: for inhibition at 2 mg/kg: Rattus norvegicus, read-out: Inhibition of secretion. It counts as in vivo, Sprague-Dawley rats. The protocol: This example illustrates the ability of BJW and its active components, magnolol, honokiol and imperatorin, to inhibit PGE2-induced fluid accumulation in rats. Sprague-Dawley rats of either sex, in groups of 8 animals, weighing between 220 and 250 g were used. A modified PGE2-induced enteropooling assay (Robert et al., Prostaglandins 11(5):809-28 (1976)) was used. The test drugs or vehicle were administrated intergastrically to rats 60 min before the administration of PGE2 (100 μg/kg, i.g.). BJW was administered (i.g. 1.6 g/kg, 2× of recommended human dosage) once daily for two days before treatment with PGE2.

The mark [3] stands for this setting: rats, dose 2 mg/kg intergastrically 60 min before PGE2 (100 μg/kg, i.g.).

The structures appear in SMILES notation. Values after ≈ are worked out from the molar mass of the structure shown. Read-outs that look alike come from different tables or passages of the source.

Turning to `C=CCc1ccc(O)c(-c2ccc(O)c(CC=C)c2)c1` [Honokiol, honokiol], in experiment [1], the IC50 was 4 to 7 µg/mL (≈ 15 to 26.3 µM). Also, in experiment [2] (setting [3]), the inhibition at 2 mg/kg is 56% and the “Fluid accumulation ratio (FA)” value is recorded as 7.06 ± 1.18 fluid g/g intestine.

With `CC(C)=CCOc1c2occc2cc2ccc(=O)oc12` [Imperatorin, imperatorin], the IC50 in experiment [1] lay in the range of 4 to 7 µg/mL (≈ 14.8 to 25.9 µM). In experiment [2] (setting [3]), the inhibition at 2 mg/kg was found to be 39% and the “Fluid accumulation ratio (FA)” value is on record as 8.87 ± 1.93 fluid g/g intestine.

Consider `CN(C)C(=O)C(CCN1CCC(O)(c2ccc(Cl)cc2)CC1)(c1ccccc1)c1ccccc1` [Loperamide, loperamide, reference compound], for which the inhibition at 2 mg/kg in experiment [2] was 75%. The “Fluid accumulation ratio (FA)” value in experiment [2] (setting [3]) is given as 5.09 ± 1.40 fluid g/g intestine.

With `C=CCc1ccc(O)c(-c2cc(CC=C)ccc2O)c1` [Magnolol, magnolol], in experiment [2], the inhibition at 2 mg/kg was 92%. The “Fluid accumulation ratio (FA)” value in experiment [2] (setting [3]) amounted to 3.28 ± 0.32 fluid g/g intestine.

In the case of `CC(C)=CCOc1c2ccoc2cc2oc(=O)ccc12` [isoimperatorin], the IC50 in experiment [1] was 4 to 7 µg/mL (≈ 14.8 to 25.9 µM).

The term IC50 denotes the midpoint of a concentration-inhibition curve. By inhibition is commonly meant the percentage by which the read-out fell short of the control.
